Experimental data taken from PubChem BioAssay AID226 (DTP/NCI, 2004).
“And” between values parts separate entries of the source, which are not always exact repeats. Equal entries are not always repeated. Toxic doses and inconclusive results are not listed.

Tested on: B6C3F1 mice, intracerebral ependymoblastoma, median survival T/C
Test: NCI In Vivo Anticancer Drug Screen. Data for tumor model Ependymoblastoma (intracerebral) in B6C3F1 mice
Details: endpoint: median survival time, higher = longer survival
Description: The antitumor activity of compounds was measured in mice bearing transplantable tumors. Survival or tumor size were measured and the results are expressed as the measurement made in the treated group (T) divided by the measurement made in the vehicle treated control group (C). The tumor model used in this assay is Ependymoblastoma (intracerebral) in B6C3F1 mice

[1] = dose: 32.0 mg/kg/injection, schedule: Q01DX005 (ip), vehicle: saline with Tween-80

COc1cccc2c1C(=O)c1c(O)c3c(c(O)c1C2=O)C[C@@](O)(C(C)=O)C[C@@H]3OC1CC(N)C(O)C(C)O1 (some centres undefined)
T/C (dose: 0.12 mg/kg/injection, schedule: Q01DX005 (ip), vehicle: water): 105 % of control
T/C (dose: 0.25 mg/kg/injection, schedule: Q01DX005 (ip), vehicle: water): 102 % of control
T/C (dose: 0.5 mg/kg/injection, schedule: Q01DX005 (ip), vehicle: water): 93 % of control and 105 % of control
T/C (dose: 1.0 mg/kg/injection, schedule: Q01DX005 (ip), vehicle: water): 92 % of control and 93 % of control
T/C (dose: 2.0 mg/kg/injection, schedule: Q01DX005 (ip), vehicle: water): 104 % of control

CC1=C(/C=C/C(C)=C/C=C/C(C)=C/C(=O)O)C(C)(C)CCC1
T/C (dose: 8.0 mg/kg/injection, schedule: Q01DX005 (ip), vehicle: saline with Tween-80): 99 % of control
T/C (dose: 16.0 mg/kg/injection, schedule: Q01DX005 (ip), vehicle: saline with Tween-80): 119 % of control
T/C [1]: 115 % of control
T/C (dose: 64.0 mg/kg/injection, schedule: Q01DX005 (ip), vehicle: saline with Tween-80): 118 % of control
T/C (dose: 128.0 mg/kg/injection, schedule: Q01DX005 (ip), vehicle: saline with Tween-80): 109 % of control

CC1(C)OCC(CO)(Nc2nc(N3CC3)nc(N3CC3)n2)CO1
T/C (dose: 1.25 mg/kg/injection, schedule: Q01DX005 (ip), vehicle: suspension in saline): 105 % of control
T/C (dose: 2.5 mg/kg/injection, schedule: Q01DX005 (ip), vehicle: suspension in saline): 103 % of control
T/C (dose: 5.0 mg/kg/injection, schedule: Q01DX005 (ip), vehicle: suspension in saline): 113 % of control

CN(C)N=Nc1ccc([N+](=O)[O-])cc1C(N)=O
T/C [1]: 112 % of control
T/C (dose: 256.0 mg/kg/injection, schedule: Q01DX005 (ip), vehicle: saline with Tween-80): 167 % of control
T/C (dose: 512.0 mg/kg/injection, schedule: Q01DX005 (ip), vehicle: saline with Tween-80): 150 % of control

O=c1n(CC2CO2)c(=O)n(CC2CO2)c(=O)n1CC1CO1 (centres undefined)
T/C (dose: 16.4 mg/kg/injection, schedule: Q01DX004 (ip), vehicle: saline): 113 % of control
T/C (dose: 16.4 mg/kg/injection, schedule: Q01DX009 (ip), vehicle: saline): 107 % of control
T/C (dose: 20.0 mg/kg/injection, schedule: Q01DX009 (ip), vehicle: saline): 117 % of control and 119 % of control
T/C (dose: 20.5 mg/kg/injection, schedule: Q01DX004 (ip), vehicle: saline): 111 % of control
T/C (dose: 20.5 mg/kg/injection, schedule: Q01DX009 (ip), vehicle: saline): 112 % of control
T/C (dose: 25.0 mg/kg/injection, schedule: Q01DX005 (ip), vehicle: saline with Tween-80): 98 % of control
T/C (dose: 25.6 mg/kg/injection, schedule: Q01DX004 (ip), vehicle: saline): 107 % of control
T/C (dose: 25.6 mg/kg/injection, schedule: Q01DX009 (ip), vehicle: saline): 113 % of control
T/C (dose: 30.0 mg/kg/injection, schedule: Q01DX009 (ip), vehicle: saline): 165 % of control
T/C (dose: 32.0 mg/kg/injection, schedule: Q01DX004 (ip), vehicle: saline): 115 % of control
T/C (dose: 32.0 mg/kg/injection, schedule: Q01DX009 (ip), vehicle: saline): 121 % of control
T/C (dose: 49.2 mg/kg/injection, schedule: Q01DX001 (ip), vehicle: saline): 95 % of control
T/C (dose: 50.0 mg/kg/injection, schedule: Q01DX009 (ip), vehicle: saline): 113 % of control
T/C (dose: 61.4 mg/kg/injection, schedule: Q01DX001 (ip), vehicle: saline): 109 % of control
T/C (dose: 76.8 mg/kg/injection, schedule: Q01DX001 (ip), vehicle: saline): 112 % of control
T/C (dose: 96.0 mg/kg/injection, schedule: Q01DX001 (ip), vehicle: saline): 106 % of control
T/C (dose: 120.0 mg/kg/injection, schedule: Q01DX001 (ip), vehicle: saline): 121 % of control
T/C (dose: 150.0 mg/kg/injection, schedule: Q01DX001 (ip), vehicle: saline): 119 % of control

NC(=O)c1ncn(C2OC(CO)C(O)C2O)n1 (centres undefined)
T/C (dose: 20.0 mg/kg/injection, schedule: Q01DX005 (ip), vehicle: saline): 99 % of control and 100 % of control
T/C (dose: 40.0 mg/kg/injection, schedule: Q01DX005 (ip), vehicle: saline): 98 % of control and 101 % of control
T/C (dose: 80.0 mg/kg/injection, schedule: Q01DX005 (ip), vehicle: saline): 92 % of control and 103 % of control
T/C (dose: 160.0 mg/kg/injection, schedule: Q01DX005 (ip), vehicle: saline): 104 % of control and 121 % of control
T/C (dose: 320.0 mg/kg/injection, schedule: Q01DX005 (ip), vehicle: saline): 97 % of control and 118 % of control
